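Exposure lasted 48 hours, with cells grown in 96-well plates and compounds tested at five concentrations. GI50 = concentration required for 50% inhibition of growth. TGI: concentration producing complete growth inhibition.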

These results are taken from PubChem BioAssay (NCI).

Some test systems named below: DU-145 prostate; HCT-15 colon; KM12 colon; RXF 393 renal; HOP-62 NSCLC; SN12C renal; HL-60(TB) leukemia; MALME-3M melanoma; ACHN renal; SNB-75 CNS.
Experiment in all cases: NCI tumour cell line growth inhibition, 48 h

`C=C1C(=O)O[C@H]2[C@H]1CC/C(CNS(=O)(=O)c1cccc3ccccc13)=C\CC[C@@]1(C)O[C@@H]21`: the GI50 in the assay on DU-145 prostate is 1.11 µM; with HCT-15 colon it was 1.25 µM; with KM12 colon, 9.76 µM; in the assay on RXF 393 renal, 1.26 µM; in the assay with HOP-62 NSCLC, 13.4 µM; in the assay with SN12C renal, 2.12 µM. The GI50 in the assay on HL-60(TB) leukemia is 1.21 µM; in the assay with MALME-3M melanoma it was 1.77 µM; in the assay on ACHN renal it was 1.19 µM. The TGI is 2.43 µM with DU-145 prostate; 2.7 µM in the assay on HCT-15 colon; 25.8 µM in the assay on KM12 colon; 2.87 µM in the assay on RXF 393 renal; 27.9 µM with HOP-62 NSCLC; 7.74 µM in the assay with SN12C renal. Besides, the TGI with HL-60(TB) leukemia was 3.76 µM; in the assay on MALME-3M melanoma, 4.09 µM; with ACHN renal, 2.56 µM.
Turning to `COc1cc(-c2oc3c(OC)c(O)c(OC)c(O)c3c(=O)c2OC)ccc1O`, the TGI was over 100 µM in the assay with DU-145 prostate; over 100 µM with HCT-15 colon; over 100 µM in the assay on KM12 colon; 61.4 µM in the assay on HOP-62 NSCLC; over 100 µM with SN12C renal; over 100 µM in the assay on HL-60(TB) leukemia. The TGI with MALME-3M melanoma and with ACHN renal was over 100 µM in each case.
In the case of `C/C=C/C=C\C1OC(O)([C@H](CC)C(=O)NC/C=C/C=C(\C)[C@H](OC)C(C)C2OC(\C=C/C=C/C=C(\C)C(=O)c3c(O)ccn(C)c3=O)[C@H](O)[C@@H]2O)C(O)C(O)C1(C)C` (stereo partly drawn), the TGI in the assay on DU-145 prostate, in the assay on HCT-15 colon, with KM12 colon, in the assay with RXF 393 renal, with HOP-62 NSCLC and in the assay with SNB-75 CNS was over 100 µM throughout. The TGI in the assay on SN12C renal, in the assay on HL-60(TB) leukemia and in the assay with ACHN renal was over 100 µM in each case.
As to `COc1cc(C(=O)CC2(O)C(=O)Nc3c(Cl)cc(Cl)cc32)ccc1O` (stereo not drawn), the TGI in the assay on HCT-15 colon is over 100 µM; in the assay on KM12 colon it was over 100 µM; in the assay with RXF 393 renal, over 100 µM; in the assay on HOP-62 NSCLC, over 100 µM; in the assay with SNB-75 CNS, 93 µM; in the assay with SN12C renal, over 100 µM. Besides, the TGI in the assay with HL-60(TB) leukemia, in the assay with MALME-3M melanoma and in the assay with ACHN renal was over 100 µM in each case.
Take `N#C[S-].[Au+].c1ccc(CN2[CH-]N(Cc3ccccc3)C(c3ccccc3)=C2c2ccccc2)cc1`: the GI50 was 0.479 µM with DU-145 prostate; 0.527 µM in the assay on KM12 colon; 0.546 µM in the assay on RXF 393 renal; 0.385 µM in the assay with SNB-75 CNS; 0.414 µM in the assay on HL-60(TB) leukemia; 0.284 µM with MALME-3M melanoma. Further, the TGI with DU-145 prostate amounted to 1.69 µM; in the assay with KM12 colon, 2.79 µM; with RXF 393 renal, 1.86 µM; in the assay with SNB-75 CNS it was 2.65 µM; with HL-60(TB) leukemia it was 2.34 µM; in the assay with MALME-3M melanoma it was 1.15 µM.
As to `O=C1C[C@@H]2CCCC[C@@H]2C12SCCS2`, the TGI in the assay with HCT-15 colon, in the assay with KM12 colon, in the assay on RXF 393 renal, with HOP-62 NSCLC, in the assay on SNB-75 CNS and in the assay with SN12C renal was over 100 µM in each case. The TGI in the assay with HL-60(TB) leukemia, in the assay on MALME-3M melanoma and in the assay with ACHN renal was over 100 µM throughout.
With `O=C1/C(=C/c2ccc(Cl)cc2)COc2ccc(O)c(O)c21`, the GI50 was 1.44 µM in the assay on DU-145 prostate; 0.356 µM in the assay with HCT-15 colon; 1.36 µM in the assay on KM12 colon; 1.34 µM in the assay on RXF 393 renal; 1.34 µM in the assay with SNB-75 CNS; 0.724 µM in the assay on SN12C renal. Moreover, the GI50 is 0.28 µM in the assay on HL-60(TB) leukemia, 1.47 µM in the assay on MALME-3M melanoma and 1.14 µM in the assay with ACHN renal. Besides, the TGI in the assay with DU-145 prostate is 3.13 µM; in the assay on HCT-15 colon, 4.18 µM; in the assay with KM12 colon it was 3.31 µM; in the assay on RXF 393 renal it was 2.75 µM; in the assay on SNB-75 CNS, 3.65 µM; in the assay on SN12C renal, 2.57 µM. The figures for the TGI with HL-60(TB) leukemia, in the assay with MALME-3M melanoma and with ACHN renal were 0.827 µM, 3.47 µM and 2.36 µM, respectively.
For the compound `C[C@@H]1C[C@@]2(O[C@@H]2C)C(=O)O[C@@H]2CCN3CC=C(COC(=O)[C@]1(C)O)[C@H]23`, the TGI in the assay on DU-145 prostate, with HCT-15 colon, in the assay with KM12 colon, in the assay with SNB-75 CNS, in the assay with SN12C renal and with HL-60(TB) leukemia was over 100 µM each time. Also, the TGI in the assay on MALME-3M melanoma and in the assay with ACHN renal was over 100 µM each time.
As to `O=C(NCP(=O)(O)O)c1cccnc1`, the TGI with DU-145 prostate, with HCT-15 colon, with KM12 colon, with RXF 393 renal, in the assay with HOP-62 NSCLC and with SNB-75 CNS was over 100 µM each time. Further, the TGI with SN12C renal, with HL-60(TB) leukemia and with ACHN renal was over 100 µM in each case.
For the compound `Cc1cc(=O)oc2cc(OCc3nc4ccccc4c(=O)[nH]3)ccc12`, the TGI with HCT-15 colon, with KM12 colon, in the assay with RXF 393 renal, in the assay with HOP-62 NSCLC, in the assay on SNB-75 CNS and with SN12C renal was over 100 µM in each case. The TGI in the assay on HL-60(TB) leukemia, with MALME-3M melanoma and with ACHN renal was over 100 µM throughout.
Consider `CCOC(=O)NC(=O)c1cn(CCN2CCN(C(=O)NCCCCCCNC(=O)N3CCN(CCn4cc(C(=O)NC(=O)OCC)c(=O)n(CCN(CC)CC)c4=O)CC3)CC2)c(=O)n(CCC(CC)CC)c1=O`, for which the TGI in the assay on HCT-15 colon, with KM12 colon, with RXF 393 renal, in the assay on HOP-62 NSCLC, in the assay with SNB-75 CNS and in the assay with SN12C renal was over 100 µM throughout. The TGI in the assay with HL-60(TB) leukemia, in the assay with MALME-3M melanoma and with ACHN renal was over 100 µM each time.
As for `COc1cc([N+](=O)[O-])c(OC)cc1-c1nc2sc(Cl)cn2c1/C=N/NC(=N)N/N=C/c1c(-c2cc(OC)c([N+](=O)[O-])cc2OC)nc2sc(Cl)cn12`, the GI50 in the assay on DU-145 prostate was 1.91 µM; with HCT-15 colon, 4.54 µM; with KM12 colon, 1.54 µM; in the assay with MALME-3M melanoma it was 1.61 µM; with ACHN renal it was 2.23 µM. Moreover, the TGI was 4.06 µM in the assay with DU-145 prostate; 22.5 µM in the assay on HCT-15 colon; 2.95 µM in the assay with KM12 colon; 3.28 µM in the assay on MALME-3M melanoma; 4.88 µM in the assay with ACHN renal.
